Read-outs that look alike come from different tables or passages of the source.
Columns and labels:
[1] = biological target: BTK enzyme (recombinant full-length BTK, hBTK) (Homo sapiens (Human), UniProt Q06187); assay: BTK enzymatic activity LANCE TR-FRET assay; format: biochemical; conditions: 50 pM hBTK, 25 μM ATP, 2 μM biotin-A5-peptide; compound range 1 μM to 0.017 nM; read-out: BTK binding IC50
[2] = tested on: adenosine uptake into HeLa cells; assay: [3H]Adenosine uptake assay in HeLa cells; format: cell-based; conditions: [3H]adenosine accumulation in HeLa cells, compound range 10 μM to 0.032 nM, read-out: ADU inhibition IC50
Outline: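 IC50 came from a 4-parameter fit of counts per second over a ten-point, 1:3 titration (final 10 µM down to […]). Compound was applied 30 min at ambient temperature in HBSS/5% FBS before a 500 nM [3H]adenosine solution was added; uptake ran 60 min, read by Cytostar-T proximity scintillation.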

Chain of BTK enzyme (recombinant full-length BTK, hBTK) (Q06187 whole entry): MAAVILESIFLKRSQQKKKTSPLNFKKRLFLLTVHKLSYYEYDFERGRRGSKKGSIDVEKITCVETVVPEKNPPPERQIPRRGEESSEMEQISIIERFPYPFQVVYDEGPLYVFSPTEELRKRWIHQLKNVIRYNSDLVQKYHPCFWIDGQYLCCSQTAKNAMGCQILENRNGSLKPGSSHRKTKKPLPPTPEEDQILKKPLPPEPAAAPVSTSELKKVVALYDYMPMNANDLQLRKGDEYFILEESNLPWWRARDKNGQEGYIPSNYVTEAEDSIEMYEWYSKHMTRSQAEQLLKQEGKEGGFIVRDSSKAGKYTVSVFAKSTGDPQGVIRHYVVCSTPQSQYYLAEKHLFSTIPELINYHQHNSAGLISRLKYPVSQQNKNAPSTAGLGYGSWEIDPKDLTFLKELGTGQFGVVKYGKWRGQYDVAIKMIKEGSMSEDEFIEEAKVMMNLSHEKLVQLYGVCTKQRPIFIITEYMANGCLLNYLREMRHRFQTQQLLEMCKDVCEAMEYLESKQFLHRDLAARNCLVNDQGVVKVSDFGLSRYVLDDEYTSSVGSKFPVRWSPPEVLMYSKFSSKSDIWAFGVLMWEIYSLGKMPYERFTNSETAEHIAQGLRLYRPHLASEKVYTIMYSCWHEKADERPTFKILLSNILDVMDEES

IC50 [1] [µM]	IC50 [2] [µM]	IC50 ([2]; Homo sapiens, HeLa) [µM]	Structure (SMILES)
0.00033	3.5		CC(O)(c1cccc(C(F)F)c1)c1ccc(-c2nc([C@@H]3CC[C@H]4CCC(=O)N4C3)n3ccnc(N)c23)c(F)c1 (stereo partly shown) [Example 195]
1		2.38	C[C@](O)(c1ccc(-c2nc([C@@H]3CC[C@H]4CCC(=O)N4C3)n3ccnc(N)c23)cc1)c1cccc(C#N)c1 [Example 84, 3-[(1S)-1-(4-{8-amino-3-[(6R,8aS)-3-oxooctahydroindolizin-6-yl]imidazo[1,5-a]pyrazin-1-yl}phenyl)-1-hydroxyethyl]benzonitrile]
0.118		0.46	C[C@](O)(c1ccc(-c2nc([C@@H]3CC[C@H]4CCC(=O)N4C3)n3c(Cl)cnc(N)c23)cc1)c1cccc(C(F)F)c1 [Example 133, (6R,8aS)-6-[8-amino-5-chloro-1-(4-{(1S)-1-[3-(difluoromethyl)phenyl]-1-hydroxyethyl}phenyl)imidazo[1,5-a]pyrazin-3-yl]hexahydroindolizin-3(2H)-one]
0.0538	0.23		CC(O)(c1cccc(C(F)F)c1)c1ccc(-c2nc([C@@H]3CC[C@@H]4N(C3)C(=O)CC4(C)C)n3ccnc(N)c23)c(F)c1 (stereo partly drawn) [Example 200, (6R,8aS)-6-[8-amino-1-(4-{1-[3-(difluoromethyl)phenyl]-1-hydroxyethyl}-2-fluorophenyl)imidazo[1,5-a]pyrazin-3-yl]-1,1-dimethylhexahydroindolizin-3(2H)-one]
0.9	0.839		CC(O)(c1ccc(-c2nc([C@@H]3CC[C@H]4CCC(=O)N4C3)n3ccnc(N)c23)cc1)C1CC2CCC1CC2 (stereo partly drawn) [Example 143, (6R,8aS)-6-{8-amino-1-[4-(1-bicyclo[2.2.2]oct-2-yl-1-hydroxyethyl)phenyl]imidazo[1,5-a]pyrazin-3-yl}hexahydroindolizin-3(2H)-one]
0.0013		3.08	CCOc1cc([C@@](C)(O)c2cccc(C(F)(F)F)c2)ccc1-c1nc([C@@H]2CC[C@@H]3N(C2)C(=O)CC3(C)C)n2ccnc(N)c12 [Example 186, (6R,8aS)-6-[8-amino-1-(2-ethoxy-4-{(1S)-1-hydroxy-1-[3-(trifluoromethyl)phenyl]ethyl}phenyl)imidazo [1,5-a]pyrazin-3-yl]-1,1-dimethylhexahydroindolizin-3(2H)-one]
0.796		4.19	C[C@@](O)(c1ccc(-c2nc([C@@H]3CC[C@H]4CCC(=O)N4C3)n3ccnc(N)c23)cc1)c1cccc(N2CCOCC2)c1 [Example 66, (6R,8aS)-6-(8-amino-1-{4-[(1R)-1-hydroxy-1-(3-morpholin-4-ylphenyl)ethyl]phenyl}imidazo[1,5-a]pyrazin-3-yl)hexahydroindolizin-3(2H)-one]
0.005	2.39		CC(O)(c1cccc(C(F)(F)F)c1)c1ccc(-c2nc([C@@H]3CC[C@H]4CCC(=O)N4C3)n3c(F)cnc(N)c23)c(F)c1 (stereo partly drawn) [Example 185, (6R,8aS)-6-[8-amino-5-fluoro-1-(2-fluoro-4-{1-hydroxy-1-[3-(trifluoromethyl)phenyl]ethyl}phenyl)imidazo [1,5-a]pyrazin-3-yl]hexahydroindolizin-3(2H)-one]
0.0591	0.936		COc1cc(-c2nc([C@@H]3CC[C@H]4CCC(=O)N4C3)n3ccnc(N)c23)ccc1C(C)(O)c1cccc(C(F)(F)F)c1 (stereo partly drawn) [Example 64, (6R,8aS)-6-[8-amino-1-(4-{1-hydroxy-1-[3-(trifluoromethyl)phenyl]ethyl}-3-methoxyphenyl)imidao [1,5-a]pyrazin-3-yl]hexahydroindolizin-3(2H)-one]
1		0.969	CO[C@@](C)(c1ccc(-c2nc([C@@H]3CC[C@H]4CCC(=O)N4C3)n3ccnc(N)c23)cc1)c1cccc(C(F)(F)F)c1 [Example 90, (6R,8aS)-6-[8-amino-1-(4-{(1S)-1-methoxy-1-[3-(trifluoromethyl)phenyl]ethyl}phenyl)imidazo [1,5-a]pyrazin-3-yl]hexahydroindolizin-3(2H)-one]
0.0174		0.311	CC(O)(c1cccc(C(F)(F)F)c1)c1ccc(-c2nc([C@@H]3CC[C@H]4CCC(=O)N4C3)n3ccnc(N)c23)c(Cl)c1 (stereo partly drawn) [Example 100, (6R,8aS)-6-[8-amino-1-(2-chloro-4-{1-hydroxy-1-[3-(trifluoromethyl)phenyl]ethyl}phenyl)imidazo [1,5-a]pyrazin-3-yl]hexahydroindolizin-3(2H)-one]
0.884		0.405	C[C@@](O)(c1ccc(-c2nc([C@@H]3CC[C@H]4CCC(=O)N4C3)n3ccnc(N)c23)cc1)c1cccc(C(F)(F)F)c1 [Example 3, (6R,8aS)-6-(8-amino-1-(4-((R)-1-hydroxy-1-(3-(trifluoromethyl)phenyl)ethyl)phenyl)imidazo[1,5-a]pyrazin-3-yl)hexahydroindolizin-3(2H)-one]
1	3.23		Cc1cc(-c2nc([C@@H]3CC[C@H]4CCC(=O)N4C3)n3ccnc(N)c23)ccc1C(C)(O)c1cccc(C(F)(F)F)c1 (stereo partly drawn) [Example 42, (6R,8aS)-6-[8-amino-1-(4-{1-hydroxy-1-[3-(trifluoromethyl)phenyl]ethyl}-3-methylphenyl)imidazo [1,5-a]pyrazin-3-yl]hexahydroindolizin-3(2H)-one]
0.00014		2.33	C[C@@](O)(c1ccc(-c2nc([C@@H]3CC[C@H]4CCC(=O)N4C3)n3c(Cl)cnc(N)c23)cc1)c1cccc(C(F)F)c1 [Example 134, (6R,8aS)-6-[8-amino-5-chloro-1-(4-{(1R)-1-[3-(difluoromethyl)phenyl]-1-hydroxyethyl}phenyl)imidazo[1,5-a]|pyrazin-3-yl]hexahydroindolizin-3(2H)-one]
0.0011		2.76	COc1cccc([C@](C)(O)c2ccc(-c3nc([C@@H]4CC[C@H]5CCC(=O)N5C4)n4ccnc(N)c34)cc2)c1 [Example 45, (6R,8aS)-6-(8-amino-1-{4-[(1R)-1-hydroxy-1-(3-methoxyphenyl)ethyl]phenyl}imidazo[1,5-a]pyrazin-3-yl)hexahydroindolizin-3(2H)-one]
0.0042	2.46		C[C@@](O)(c1ccc(-c2nc([C@@H]3CC[C@H]4C(C(F)(F)F)CC(=O)N4C3)n3ccnc(N)c23)cc1)c1cccc(C(F)(F)F)c1 (stereo partly drawn) [Example 180, (1R,6R,8aS)-6-[8-amino-1-(4-{(1R)-1-hydroxy-1-[3-(trifluoromethyl)phenyl]ethyl}phenyl)imidazo [1,5-a]pyrazin-3-yl]-1-(trifluoromethyl) hexahydroindolizin-3(2H)-one]
0.00012		0.956	C[C@@](O)(c1ccc(-c2nc([C@@H]3CC[C@H]4CCC(=O)N4C3)n3c(Cl)cnc(N)c23)cc1)c1cccc(C2CC2)c1 [Example 117, (6R,8aS)-6-(8-amino-5-chloro-1-{4-[(1R)-1-(3-cyclopropylphenyl)-1-hydroxyethyl]phenyl}imidazo[1,5-a]pyrazin-3-yl)hexahydroindolizin-3(2H)-one]
0.0002		3.62	CC1(C)C[C@@H]2CC[C@@H](c3nc(-c4ccc([C@@](C)(O)c5cccc(C(F)F)c5)cc4)c4c(N)nccn34)CN2C1=O [Example 181, (6R,8aS)-6-[8-amino-1-(4-{(1R)-1-[3-(difluoromethyl)phenyl]-1-hydroxyethyl}phenyl)imidazo[1,5-a]pyrazin-3-yl]-2,2-dimethylhexahydroindolizin-3(2H)-one]
0.0016	5.41		CC(O)(c1cccc(C(F)F)c1)c1ccc(-c2nc([C@@H]3CC[C@H]4CCC(=O)N4C3)n3c(F)cnc(N)c23)c(F)c1 (stereo partly drawn) [Example 208, (6R,8aS)-6-(8-amino-1-(4-{1-[3-(difluoromethyl)phenyl]-1-hydroxyethyl}-2-fluorophenyl)-5-fluoroimidazo[1,5-a]pyrazin-3-yl]hexahydroindolizin-3(2H)-one]
0.0006	7.03		COc1cc(C(O)(c2cccc(C(F)F)c2)C(F)(F)F)ccc1-c1nc([C@@H]2CC[C@H]3CCC(=O)N3C2)n2ccnc(N)c12 (stereo partly drawn) [Example 211, (6R,8aS)-6-[8-amino-1-(4-{1-[3-(difluoromethyl)phenyl]-2,2,2-trifluoro-1-hydroxyethyl}-2-methoxyphenyl)imidazo [1,5-a]pyrazin-3-yl]hexahydroindolizin-3(2H)-one]
0.201		0.8	C[C@](O)(c1ccc(-c2nc([C@@H]3CC[C@H]4CCC(=O)N4C3)n3ccnc(N)c23)cc1)c1cccc(OC2CC2)c1 [Example 94, (6R,8aS)-6-[8-amino-1-(4-{(1S)-1-[3-(cyclopropyloxy)phenyl]-1-hydroxyethyl}phenyl)imidazo[1,5-a]pyrazin-3-yl]hexahydroindolizin-3(2H)-one]
0.00087		0.458	C[C@](O)(c1ccc(-c2nc([C@@H]3CC[C@H]4CCC(=O)N4C3)n3c(Cl)cnc(N)c23)cc1)c1cccc(C2CC2)c1 [Example 116, (6R,8aS)-6-(8-amino-5-chloro-1-{4-[(1S)-1-(3-cyclopropylphenyl)-1-hydroxyethyl]phenyl}imidazo[1,5-a]pyrazin-3-yl)hexahydroindolizin-3(2H)-one]
0.0127	1.44		Cc1ccc(C(F)(F)F)cc1C(O)c1ccc(-c2nc([C@@H]3CC[C@H]4CCC(=O)N4C3)n3ccnc(N)c23)cc1 (stereo partly drawn) [Example 130, (6R,8aS)-6-[8-amino-1-(4-{hydroxy[2-methyl-5-(trifluoromethyl)phenyl]methyl}phenyl)imidazo [1,5-a]pyrazin-3-yl]hexahydroindolizin-3(2H)-one]
